The results in this text go back to US4916141A, “(S)-7-(3-amino-1-pyrrolidinyl)-1-cyclop ropyl-6-fluoro-1,4-dihydro-4-oxo-1,8-naphthyridine-3-carboxylic acid” (Warner-Lambert Company, priority 1989, dated 1990).

In brackets after ≈: the same amount, converted by molar mass. Counter-ions that a name gives are not always drawn.

Experiment [1] relates to Pseudomonas aeruginosa UI-18. Nature of the experiment: microtitration dilution MIC. Type of experiment: cell-based. Particulars: UI18, read-out: minimum inhibitory concentration (MIC). An excerpt:
(§1) The compounds of the invention display antibacterial activity when tested by the microtitration dilution method as described in Heifetz, et al, […]. Agents and Chemot. 6, 124 (1974), which is incorporated herein by reference. […] Pat. No. 4,649,144.

Experiment [2] relates to Streptococcus pyogenes C-203. Nature of the experiment: microtitration dilution MIC. In kind it is cell-based. Particulars: C203, read-out: minimum inhibitory concentration (MIC).
Excerpt: as §1

Experiment [3] deals with Staphylococcus aureus UC-76. The experiment can be described thus: microtitration dilution MIC. Type of experiment: cell-based. The settings on record: UC76, read-out: minimum inhibitory concentration (MIC).
Excerpt: as §1

Experiment [4] deals with Streptococcus pneumoniae SV-1. The experiment can be described thus: microtitration dilution MIC. Type of experiment: cell-based. The settings on record: SV1, read-out: minimum inhibitory concentration (MIC).
Excerpt: as §1

Experiment [5] concerns Staphylococcus aureus H 228. The experiment can be described thus: microtitration dilution MIC. Particulars: H228, read-out: minimum inhibitory concentration (MIC). In kind it is cell-based.
Excerpt: as §1

Experiment [6] relates to Staphylococcus faecalis MGH-2. The experiment can be described thus: microtitration dilution MIC. In kind it is cell-based. The settings on record: MGH2, read-out: minimum inhibitory concentration (MIC).
Excerpt: as §1

Experiment [7] has as its system Klebsiella pneumoniae MGH-2. Nature of the experiment: microtitration dilution MIC. In kind it is cell-based. Particulars: MGH2, read-out: minimum inhibitory concentration (MIC).
Excerpt: as §1

The test system of experiment [8] is Escherichia coli Vogel. The experiment can be described thus: microtitration dilution MIC. Particulars: read-out: minimum inhibitory concentration (MIC). Type of experiment: cell-based.
Excerpt: as §1

Experiment [9] has as its system Enterobacter cloacae MA 2646. The experiment can be described thus: microtitration dilution MIC. In kind it is cell-based. The settings on record: MA2646, read-out: minimum inhibitory concentration (MIC).
Excerpt: as §1

The subject of the next experiment is Proteus rettgeri M 1771. The experiment can be described thus: microtitration dilution MIC. Particulars: Providencia rettgeri, M1771, read-out: minimum inhibitory concentration (MIC). In kind it is cell-based.
Excerpt: as §1

Experiment [10] relates to Pseudomonas aeruginosa UI-18. Nature of the experiment: acute mouse protection test (PD50). Type of experiment: in vivo, mouse (female Charles River CD-1). Particulars: for median protective dose (PD50) P.O.: oral; for median protective dose (PD50) S.C.: subcutaneous. How it is done:
(§2) The in vivo experiments on the bacteria named are expressed in terms of median protective doses (PD50) on the test animals to which the compounds were administered orally and subcutaneously. The measurement of PDso was carried out according to the following procedure:
(§3) Therapeutic activities of the compounds were compared in acute mouse protection tests in which 18-22 g female Charles River CD-1 mice were used. Oral and subcutaneous doses in twofold rising incremental series were administered concurrently with bacterial challenge. Challenges were accomplished by the intraperitoneal injection of an estimated 100 median lethal doses in 0.5 ml volumes of 5% hog gastric mucin or tryptic soy broth. Generally, greater than 90% of the untreated controls died within 48-72 hours. Final survival percentages, obtained after 4-7 days of observation among groups of 8-16 mice, were used to estimate median protective doses (PD50) by the log-probit method.

The test system of experiment [11] is Streptococcus pneumoniae SV-1. The experiment can be described thus: acute mouse protection test (PD50). Type of experiment: in vivo, mouse (female Charles River CD-1). The settings on record: for median protective dose (PD50) P.O.: oral; for median protective dose (PD50) S.C.: subcutaneous. As to the method: as §2, §3
The test system of experiment [12] is Staphylococcus faecalis MGH-2. Nature of the experiment: acute mouse protection test (PD50). Type of experiment: in vivo, mouse (female Charles River CD-1). Particulars: for median protective dose (PD50) P.O.: oral; for median protective dose (PD50) S.C.: subcutaneous. As to the method: as §2, §3
Experiment [13] has as its system Escherichia coli Vogel. Nature of the experiment: acute mouse protection test (PD50). Type of experiment: in vivo, mouse (female Charles River CD-1). The settings on record: for median protective dose (PD50) P.O.: oral; for median protective dose (PD50) S.C.: subcutaneous. How it is done: as §2, §3
For experiment [14], the system named is gram-positive and gram-negative bacteria. The experiment can be described thus: antibacterial activity in vitro and in vivo (summary statement). Particulars: in vitro as well as in vivo.
Excerpt: The compounds of the invention display antibacterial activity when tested by the microtitration dilution method as described in Heifetz, et al, Antimicr. Agents and Chemot. 6, 124 (1974), which is incorporated herein by reference. By the use of the above reference method, the following minimum inhibitory concentration values (MICs in μg/ml) were obtained for the compound of the present invention, (S)-7-(3-amino-1-pyrrolidinyl)-1-cyclopropyl-6-fluoro-1,4-dihydro-4-oxo-1,8-naphthyridine-3-carboxylic acid, the corresponding (R) isomer and the racemic compound as described in U.S. Pat. No. 4,649,144.
as §2
Therapeutic activities of the compounds were compared in acute mouse protection tests in which 18-22 g female Charles River CD-1 mice were used. Oral and subcutaneous doses in twofold rising incremental series were administered concurrently with bacterial challenge. Challenges were accomplished by the intraperitoneal injection of an estimated 100 median lethal doses in 0.5 ml volumes of 5% hog gastric mucin or tryptic soy broth. Generally, greater than 90% of the untreated controls died within 48-72 hours. […]

Consider `NC1CCN(c2nc3c(cc2F)c(=O)c(C(=O)O)cn3C2CC2)C1` (racemic) [Racemic, 7-(3-amino-1-pyrrolidinyl)-1-Cyclopropyl-6-fluoro-1,4-dihydro-4-oxo-1,8-naphthyridine-3-carboxylic acid], for which the MIC in experiment [1] stood at 0.05 µg/mL (≈ 0.15 µM); in experiment [2] it was 0.2 µg/mL (≈ 0.602 µM); in [3], 0.013 µg/mL (≈ 0.0391 µM); in [4] it was 0.2 µg/mL (≈ 0.602 µM); in experiment [5], 0.2 µg/mL (≈ 0.602 µM); in experiment [6], 0.2 µg/mL (≈ 0.602 µM). In addition, the MIC in experiment [7] was determined as 0.025 µg/mL (≈ 0.0752 µM); in the experiment with Escherichia coli Vogel [8], 0.013 µg/mL (≈ 0.0391 µM); in experiment [9], 0.025 µg/mL (≈ 0.0752 µM); with Proteus rettgeri M 1771, 0.1 µg/mL (≈ 0.301 µM). In addition, the “median protective dose (PD50) P.O.” value in [10] is recorded as 7.3; in experiment [11], 32; in experiment [12], 58; with Escherichia coli Vogel [13], 2.0. Further, the “median protective dose (PD50) S.C.” value in experiment [10] amounted to 3.2; in experiment [11], 14; in [12], 33; in the experiment on Escherichia coli Vogel [13] it was 0.6.

Take `N[C@@H]1CCN(c2nc3c(cc2F)c(=O)c(C(=O)O)cn3C2CC2)C1` ["R" Isomer, (R)-7-(3-Amino-1-pyrrolidinyl)-1-cyclopropyl)-6-fluoro-1,4-dihydro-4-oxo-1,8-naphthyridine-3carboxylic acid hydrochloride]: the MIC in experiment [1] was found to be 0.4 µg/mL; in experiment [2] it was 0.2 µg/mL; in experiment [3], 0.05 µg/mL; in [4] it was 0.1 µg/mL; in experiment [5], 0.2 µg/mL; in experiment [6], 0.2 µg/mL. In addition, the MIC in experiment [7] was 0.025 µg/mL; in the experiment with Escherichia coli Vogel [8], 0.013 µg/mL; in experiment [9] it was 0.025 µg/mL; in the experiment on Proteus rettgeri M 1771, 0.05 µg/mL. Besides, the entries for the “median protective dose (PD50) P.O.” value (in experiment [12]; in the experiment with Escherichia coli Vogel [13]) were 45 and 0.51, respectively. In addition, the “median protective dose (PD50) S.C.” value stood at 34 in [12] and 0.35 with Escherichia coli Vogel [13].

For `N[C@H]1CCN(c2nc3c(cc2F)c(=O)c(C(=O)O)cn3C2CC2)C1` ["S" Isomer, (S)-7-(3-Amino-1-pyrrolidinyl)-1-cyclopropyl-6-fluoro-1,4-dihydro-4-oxo-1,8-naphthyridine-3-carboxylic acid], the MIC turned out to be 0.1 µg/mL (≈ 0.301 µM) in experiment [1]; 0.05 µg/mL (≈ 0.15 µM) in experiment [2]; 0.013 µg/mL (≈ 0.0391 µM) in experiment [3]; 0.05 µg/mL (≈ 0.15 µM) in experiment [4]; 0.05 µg/mL (≈ 0.15 µM) in experiment [5]; 0.1 µg/mL (≈ 0.301 µM) in experiment [6]. Moreover, the MIC in [7] turned out to be 0.013 µg/mL (≈ 0.0391 µM); in the experiment with Escherichia coli Vogel [8] it was 0.006 µg/mL (≈ 0.0181 µM); in experiment [9], 0.013 µg/mL (≈ 0.0391 µM); in the experiment on Proteus rettgeri M 1771 it was 0.025 µg/mL (≈ 0.0752 µM). Moreover, the “antibacterial activity compared with R isomer and racemic compound” value in experiment [14] was “not only better than its opposite R isomer but also better than the racemic compound”; in [14] (listed as S form), “significantly better activity against both gram-positive and gram-negative bacteria in vitro as well as in vivo”. For the same molecule, the “median protective dose (PD50) P.O.” value in [10] came to 3.5; in experiment [11], 19; in experiment [12], 19; in the experiment with Escherichia coli Vogel [13] it was 0.7. In addition, the “median protective dose (PD50) S.C.” value in experiment [10] stood at 2.1; in [11], 9; in experiment [12], 14; with Escherichia coli Vogel [13] it was 0.35.
